Measured values as given in patent US10752588B2 (The Broad Institute, Inc., priority 2014, dated 2020).
pEC50, pIC50: −log10 of the molar value.

Legend:
[1] = target: T1, human D2R/β-arrestin (Homo sapiens (Human), UniProt P14416); assay: β-Arrestin agonist assay (PathHunter); format: cell-based; conditions: CHO-K1 cell line expressing human D2R/β-arrestin
Protocol: (§1) The assays can be performed using proper detection reagents either prepared using routine methods known in the art or commercially available (e.g., PathHunter® β-Arrestin Detecting Kit (DiscoveRX)). Cells are grown to the necessary confluence and then detached. The cells are then centrifuged, washed, resuspended, and seeded into a container (e.g., 384-well plate). The cells are incubated (e.g., at 37° C., 5% CO2) for the appropriate period of time (e.g., 24 hours), before various compounds (e.g., a compound of the invention or a control compound) are added to the cells. After incubation of the cells with the compounds, detection reagents (e.g., a buffer containing Emerald II: Galactor-Star as provided DiscoveRX) are added to the cells. The read-out (e.g., luminescence, or fluorescence) is detected using standard equipment.
The detection reagent (9.6 μL, Buffer:Emerald II:Galactor-Star in a 19:5:1 ratio, i.e., 14.06 mL:3.7 mL:0.74 mL=18.5 mL) was then added to the agonist plates.

[2] = target: T1, human D2R/β-arrestin; assay: Gi/cAMP agonist assay (Lance Ultra cAMP, Forskolin); format: cell-based; conditions: CHO-K1 cell line expressing human D2R/β-arrestin
Protocol: as §1, with “PE Lance Ultra cAMP kit (TRF0263)).” for “PathHunter® β-Arrestin Detecting Kit (DiscoveRX)).”, “Afterwards, cAMP inducing agents (e.g., Forskolin) are added to and incubated with” for “After incubation of”, “before” for “with the compounds,”, “cAMP antibody, such” for “buffer containing Emerald II: Galactor-Star”, “ULight-anti-cAMP solution)” for “provided DiscoveRX)”, “Read-out” for “The read-out”
Compounds were pin-transferred (100 nL) to the cells, and incubated for 10 min. at 37° C. […] Eu-cAMP tracer solution (100, PerkinElmer, […] in 17.64 ml kit buffer) and ULight-anti-cAMP solution (100, 120 μL antibody in 17.88 ml kit buffer) was then added to each well.

[3] = target: T1, human D2R/β-arrestin; assay: cell-based; conditions: β-arrestin Antagonist, CHO-K1 cell line expressing human D2R/β-arrestin; quinpirole used as agonist
[4] = target: T1, human D2R/β-arrestin; assay: cell-based; conditions: cAMP Antagonist, CHO-K1 cell line expressing human D2R/β-arrestin; quinpirole used as agonist
Protocol: The detection reagents are then added, and the read-out is detected.
Cells were prepared for assays by growing cultures for up to 2 weeks (from about 6-20 passages). A vial of frozen cells was thawed in a water bath held at 37° C. The cells were then transferred into a 50 ml tube with 10 ml growth media. The vial was rinsed with growth media and the contents transferred to the 50 ml tube. The 50 ml tube was centrifuged at 1200 rpm for 5 minutes at room temperature. […] When the cells reached about 90% confluence (approximately 3 days between passages), the cells were passaged and used for either the agonist or antagonist assays as described below.
The cells were prepared for Gi/cAMP assays as described above. The assays were performed using a PE Lance Ultra cAMP kit (TRF0263). The cells were grown on 225 mm dishes, then washed once with 1×PBS (Cellgro) before digestion with 2.5 ml 1× Detachment reagent (DRX 92-0009) for about 2 minutes. PBS (20 ml) was then added to the plate, and the cells were transferred to a 50 ml centrifuge tube, and centrifuged at room temperature using BD Dynac III, at 1200 rpm for 5 minutes. […] The plates were then incubated at room temperature for about 30 minutes before addition of Eu-cAMP tracer solution (100, PerkinElmer) and then ULight-anti-cAMP solution (100) to each well.

T1 sequence (P14416 whole entry): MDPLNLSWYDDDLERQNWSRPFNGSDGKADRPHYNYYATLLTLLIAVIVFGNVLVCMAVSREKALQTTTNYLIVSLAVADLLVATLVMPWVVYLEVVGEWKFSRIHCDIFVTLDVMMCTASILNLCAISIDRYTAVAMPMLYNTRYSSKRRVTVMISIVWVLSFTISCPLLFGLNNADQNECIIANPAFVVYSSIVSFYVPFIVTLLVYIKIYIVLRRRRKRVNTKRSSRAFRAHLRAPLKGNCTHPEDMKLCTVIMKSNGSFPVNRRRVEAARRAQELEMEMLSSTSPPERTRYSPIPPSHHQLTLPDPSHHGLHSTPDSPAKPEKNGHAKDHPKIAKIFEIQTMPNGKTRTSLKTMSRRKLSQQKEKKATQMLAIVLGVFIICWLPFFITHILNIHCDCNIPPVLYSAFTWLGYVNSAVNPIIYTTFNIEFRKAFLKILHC

| SMILES | pEC50 [1] | pEC50 [2] | pIC50 [3] | pIC50 [4] |
| --- | --- | --- | --- | --- |
| COc1ccc(OCCN2CCC(C(=O)NC(c3ccc(Cl)cc3)c3ccccn3)CC2)cc1 (stereo not shown) [Compound 13, N-((4-chlorophenyl)(pyridin-2-yl)methyl)-1-(2-(4-methoxyphenoxy)ethyl) piperidine-4-carboxamide] | < 4.52 | 5.00 to 6.00 | 5.00 to 6.00 | < 4.52 |
| O=C(NC(c1ccc(Cl)cc1)c1ccccn1)C1CCN(CCOC2CCCCC2)CC1 (stereo not shown) [Compound 17, N-((4-chlorophenyl) (pyridin-2-yl)methyl)-1-(2-(cyclohexyloxy)ethyl) piperidine-4-carboxamide] | < 4.52 | < 4.52 | 5.00 to 6.00 | 6.00 to 7.00 |
| O=C(NC(c1ccc(Cl)cc1)c1ccccn1)C1CCN(CCOc2ccc3ncsc3c2)CC1 (stereo not shown) [Compound 19, 1-(2-(Benzo[d]thiazol-6-yloxy)ethyl)-N-((4-chlorophenyl)(pyridin-2-yl)methyl) piperidine-4-carboxamide] | < 4.52 | 6.00 to 7.00 | 5.00 to 6.00 | < 4.52 |
| COc1cccc(C(NC(=O)C2CCN(CCOc3ccccc3C(F)(F)F)CC2)c2ccccn2)c1 (stereo not shown) [Compound 20, N-((3-methoxyphenyl)(pyridin-2-yl)methyl)-1-(2-(2-(trifluoromethyl)phenoxy)ethyl) piperidine-4-carboxamide] | < 4.52 | < 4.52 | 6.00 to 7.00 | > 7.00 |
| COc1cccc(C(NC(=O)C2CCN(CCOc3ccccc3Cl)CC2)c2ccccn2)c1 (stereo not shown) [Compound 21, 1-(2-(2-chlorophenoxy)ethyl)-N-((3-methoxyphenyl)(pyridin-2-yl)methyl) piperidine-4-carboxamide] | < 4.52 | < 4.52 | 6.00 to 7.00 | 6.00 to 7.00 |
| COc1cccc(C(NC(=O)C2CCN(CCOc3ccccc3F)CC2)c2ccccn2)c1 (stereo not shown) [Compound 22, 1-(2-(2-fluorophenoxy)ethyl)-N-((3-methoxyphenyl)(pyridin-2-yl)methyl) piperidine-4-carboxamide] | < 4.52 | < 4.52 | 6.00 to 7.00 | 6.00 to 7.00 |
| O=C(NC(c1ccccn1)c1ccccc1Cl)C1CCN(CCOc2ccccc2)CC1 (stereo not shown) [Compound 24] | < 4.52 | 5.00 to 6.00 | 5.00 to 6.00 | < 4.52 |
| O=C(NC(c1cccnc1)c1ccccn1)C1CCN(CCOc2ccccc2)CC1 (stereo not shown) [Compound 29, 1-(2-phenoxyethyl)-N-(pyridin-2-yl(pyridin-3-yl)methyl)piperidine-4-carboxamide] | < 4.52 | 6.00 to 7.00 | 5.00 to 6.00 | < 4.52 |
| O=C(NC(c1ccccn1)c1ccccn1)C1CCN(CCOc2ccccc2)CC1 [Compound 30, N-(di(pyridin-2-yl)methyl)-1-(2-phenoxyethyl)piperidine-4-carboxamide] | < 4.52 | 5.00 to 6.00 | 4.52 to 5.00 | < 4.52 |
| O=C(NC(c1ccccn1)c1ccccc1C(F)(F)F)C1CCN(CCOc2ccccc2)CC1 (stereo not shown) [Compound 33, 1-(2-phenoxyethyl)-N-(pyridin-2-yl(2-(trifluoromethyl)phenyl)methyl) piperidine-4-carboxamide] | < 4.52 | 5.00 to 6.00 | 4.52 to 5.00 | < 4.52 |
| COc1ccc(C(NC(=O)C2CCN(CCOc3ccccc3)CC2)c2ccccn2)cc1 (stereo not shown) [Compound 34] | < 4.52 | 6.00 to 7.00 | 5.00 to 6.00 | < 4.52 |
| COc1ccccc1C(NC(=O)C1CCN(CCOc2ccccc2)CC1)c1ccccn1 (stereo not shown) [Compound 36, N((2-methoxyphenyl)(pyridin-2-yl)methyl)-1-(2-phenoxyethyl) piperidine-4-carboxamide] | < 4.52 | < 4.52 | 4.52 to 5.00 | < 4.52 |
| CC(C)C(NC(=O)C1CCN(CCOc2ccccc2)CC1)c1ccccn1 (stereo not shown) [Compound 38, N-(2-methyl-1-(pyridin-2-yl)propyl)-1-(2-phenoxyethyl)piperidine-4-carboxamide] | < 4.52 | 5.00 to 6.00 | 5.00 to 6.00 | < 4.52 |
